Read-outs that look alike come from different tables or passages of the source.
Columns and labels:
[1] = tested on: mouse model of ovalbumin (OVA)-induced asthma; assay: Experimental asthma model: methacholine (MCh)-induced bronchoconstriction/airway hyper-reactivity (Penh) in ovalbumin (OVA)-induced asthma; type: in vivo; conditions: for response vs control in vivo at 0.1 mg/kg: single IV dose 0.1 mg/kg; for efficacy against experimental asthma (attenuation of MCh induced bronchoconstriction): administered intravenously (IV); for response vs control in vivo at 1 mg/kg: single IV dose 1 mg/kg; for response vs control in vivo at 30 mg/kg: single oral dose 30 mg/kg; for efficacy against experimental asthma (attenuation of MCh induced bronchoconstriction and pulmonary inflammation): administered intravenously (IV) or orally; for response vs control in vivo at 10 mg/kg: single IV dose 10 mg/kg
Method: (§1) A mouse model of ovalbumin (OVA)-induced asthma was used to screen GSNOR inhibitors for efficacy against methacholine (MCh)-induced bronchoconstriction/airway hyper-reactivity. This is a widely used and well characterized model that presents with an acute, allergic asthma phenotype with similarities to human asthma. Efficacy of GSNOR inhibitors were assessed using a prophylactic protocol in which GSNOR inhibitors were administered prior to challenge with MCh. Bronchoconstriction in response to challenge with increasing doses of MCh was assessed using whole body plethysmography (Penh; Buxco). The amount of eosinophil infiltrate into the bronchioalveolar lavage fluid (BALF) was also determined as a measure of lung inflammation. The effect of GSNOR inhibitors were compared to vehicles and to Combivent (inhaled; IH) as the positive control.
(§2) OVA (500 μg/ml) in PBS was mixed with equal volumes of 10% (w/v) aluminum potassium sulfate in distilled water and incubated for 60 min. at room temperature after adjustment to pH 6.5 using 10 N NaOH. After centrifugation at 750×g for 5 min, the OVA/alum pellet was resuspended to the original volume in distilled water. Mice received an intraperitoneal (IP) injection of 100 μg OVA (0.2 mL of 500 μg/mL in normal saline) complexed with alum on day 0. Mice were anesthetized by IP injection of a 0.2-mL mixture of ketamine and xylazine (0.44 and 6.3 mg/mL, respectively) in normal saline and were placed on a board in the supine position. Two hundred fifty micrograms (100 μl of a 2.5 mg/ml) of OVA (on day 8) and 125 μg (50 μl of 2.5 mg/ml) OVA (on days 15, 18, and 21) were placed on the back of the tongue of each animal.
In vivo airway responsiveness to methacholine was measured 24 h after the last OVA challenge in conscious, freely moving, spontaneously breathing mice with whole body plethysmography using a Buxco chamber (Wilmington, N.C.). Mice were challenged with aerosolized saline or increasing doses of methacholine (5, 20 and 50 mg/mL) generated by an ultrasonic nebulizer for 2 min. The degree of bronchoconstriction was expressed as enhanced pause (Penh), a calculated dimensionless value, which correlates with the measurement of airway resistance, impedance, and intrapleural pressure in the same mouse. Penh readings were taken and averaged for 4 min. after each nebulization challenge. Penh was calculated as follows: Penh=[(Te/Tr−1)×(PEF/PIF)], where Te is expiration time, Tr is relaxation time, PEF is peak expiratory flow, and PIF is peak inspiratory flow×0.67 coefficient. The time for the box pressure to change from a maximum to a user-defined percentage of the maximum represents the relaxation time. The Tr measurement begins at the maximum box pressure and ends at 40%.
(§3) GSNOR inhibitors were reconstituted in phosphate buffered saline (PBS), pH 7.4, at concentrations ranging from 0.00005 to 3 mg/mL. GSNOR inhibitors were administered to mice (10 mL/kg) as a single dose either intravenously (IV) or orally via gavage. Dosing was performed from 30 min. to 24 h prior to MCh challenge. Effect of GSNOR inhibitors were compared to PBS vehicle dosed in the same manner.
Combivent was used as the positive control in all studies. Combivent (Boehringer Ingelheim) was administered to the lung using the inhaler device supplied with the product, but adapted for administration to mice, using a pipet tip. Combivent was administered 48 h, 24 h, and 1 h prior to MCh challenge. Each puff (or dose) of Combivent provided a dose of 18 μg ipatropium bromide (IpBr) and 103 μg albuterol sulfate or approximately 0.9 mg/kg IpBr and 5 mg/kg albuterol.
(§4) Area under the curve values for Penh across baseline, saline, and increasing doses of MCh challenge were calculated using GraphPad Prism 5.0 (San Diego, Calif.) and expressed as a percent of the respective (IV or orally administered) vehicle control.

[2] = tested on: mouse model of ovalbumin (OVA)-induced asthma; assay: as above; type: in vivo; conditions: single IV dose 0.1 mg/kg, 48 h prior to MCh, read-out: area under the curve (AUC) for Penh response as percent of vehicle control
[3] = tested on: OVA sensitized mice, methacholine-induced bronchial hyper-reactivity; assay: GSNOR inhibition assay in an in vivo animal model: OVA mouse model of asthma, methacholine challenge, Penh by whole body plethysmograph; conditions: 1 mg/kg, 10 mg/kg or 30 mg/kg intravenously 24 hours prior
Method: In an effort to determine if similar observations would manifest if GSNOR were inhibited pharmacologically by a GSNOR inhibitor, an OVA mouse model (i.e., the wild-type model of Que et al.) was used. In this study, OVA sensitized mice were administered 1 mg/kg, 10 mg/kg or 30 mg/kg of Compound 1 intravenously at 24 hours prior to being placed in a whole body plethysmograph (Buxco Research Systems, Wilmington, N.C.) and provided with fresh air.
Subject animals were then challenged with an aerosol of increasing dosages of the bronchoconstrictive agent methacholine, a pharmacologic agent commonly used in determining the degree of bronchial hyper-reactivity in experimental subjects. In this study mice were exposed to an increasing concentration of methacholine, each dose being presented for 3 minutes, during which time readings were taken. Doses of methacholine were 0 mg/ml, 5 mg/ml, 20 mg/ml, and 50 mg/ml. The degree of bronchial hyper-reactivity was measured as the ‘Enhanced Pause’ (Penh), a unit-less index of airway hyper-reactivity (Dohi et al., Lab Invest. 79(12):1559-1571, 1999).

[4] = tested on: mouse model of ovalbumin (OVA)-induced asthma; assay: Experimental asthma model: eosinophil infiltrate in bronchioalveolar lavage fluid (BALF); type: in vivo
Method: as §1, §2
After measurement of airway hyper-reactivity, the mice were exsanguination by cardiac puncture, and then BALF was collected from either both lungs or from the right lung after tying off the left lung at the mainstem bronchus. Total BALF cells were counted from a 0.05 mL aliquot, and the remaining fluid is centrifuged at 200×g for 10 min at 4° C. Cell pellets were resuspended in saline containing 10% BSA with smears made on glass slides. Eosinophils were stained for 5 min. with 0.05% aqueous eosin and 5% acetone in distilled water, rinsed with distilled water, and counterstained with 0.07% methylene blue.
as §3
as §4, with “control. Statistical differences among treatment groups and the respective vehicle control group within each study were calculated using one-way ANOVA, Dunnetts (JMP 8.0, SAS Institute, Cary, N.C.).” for “control.”

[5] = Mus musculus, 24 h prior to MCh, read-out: area under the curve (AUC) for Penh response as percent of vehicle control
[6] = single IV dose 1 mg/kg, 24 h prior to MCh
[7] = single oral dose 30 mg/kg, 24 h prior to MCh

`Cc1cc(C(N)=O)ccc1-n1c(CCC(=O)O)ccc1-c1ccc(-n2ccnc2)cc1` [Compound 1, 3-(5-(4-(1H-imidazol-1-yl)phenyl)-1-(4-carbamoyl-2-methyl-phenyl)-1H-pyrrol-2-yl)propanoic acid] gave an ED50 ([1]; Mus musculus, iv, read-out: ED50, dose demonstrating 50% reduction in Penh response) of 0.011 ± 0.003 mg/kg, a response vs control in vivo at 0.01 mg/kg ([1]; Mus musculus, single IV dose 0.01 mg/kg, 24 h prior to MCh, read-out: area under the curve (AUC) for Penh response as percent of vehicle control) of 42.1 ± 2.8% and a response vs control in vivo at 0.1 mg/kg ([1]; Mus musculus, 1 h prior to MCh, read-out: area under the curve (AUC) for Penh response as percent of vehicle control) of 76.4 ± 6.6%. The “efficacy against experimental asthma (attenuation of MCh induced bronchoconstriction)” value [1] was “efficacious”, the response vs control in vivo at 0.1 mg/kg [2] was 64.4 ± 55% and the “broncho-constrictive responses (Penh) to methacholine challenge compared with vehicle-only dosed animals” value [3] was “lower broncho-constrictive responses”. The “reduction of eosinophil infiltration into the BALF” value (“reduction” for short) ([4]; single IV dose 0.01 mg/kg, 24 h prior to MCh) was 98%.

For `Cc1cc(C(N)=O)ccc1-n1c(CCC(=O)O)ccc1-c1ccc(-n2ccnc2C)cc1` [Compound 3, 3-(1-(4-carbamoyl-2-methyl-phenyl)-5-(4-(2-methyl-1H-imidazol-1-yl)phenyl)-1H-pyrrol-2-yl)propanoic acid], the response vs control in vivo at 1 mg/kg [1, 5] was 71 ± 8.6%, the “efficacy against experimental asthma (attenuation of MCh induced bronchoconstriction)” value [1] was “efficacious” and the “reduction” value [4, 6] was 46%.

For `COc1ccc(-c2ccc(CCC(=O)O)n2-c2ccc(C(N)=O)cc2C)cc1` [Compound 9, 3-(1-(4-carbamoyl-2-methylphenyl)-5-(4-methoxy-phenyl)-1H-pyrrol-2-yl)propanoic acid], the response vs control in vivo at 1 mg/kg [1, 5] was 65.3 ± 5.9%, the response vs control in vivo at 30 mg/kg [1, 5] was 24.6 ± 3% and the “efficacy against experimental asthma (attenuation of MCh induced bronchoconstriction and pulmonary inflammation)” value [1] was “efficacious”. For the same compound, the “reduction” value [4, 6] was 92% and the “reduction” value [4, 7] was 100%.

`Cc1cc(C(N)=O)ccc1-n1c(CCC(=O)O)ccc1-c1ccc(Br)cc1` [Compound 12, 3-(5-(4-bromophenyl)-1-(4-carbamoyl-2-methylphenyl)-1H-pyrrol-2-yl)propanoic acid] was tested, and the “efficacy against experimental asthma (attenuation of MCh induced bronchoconstriction)” value [1] was “efficacious”.

Compound `COc1cc(Cl)ccc1-c1ccc(CCC(=O)O)n1-c1ccc(C(N)=O)cc1C` [Compound 116, 3-(1-(4-carbamoyl-2-methylphenyl)-5-(4-chloro-2-methoxy-phenyl)-1H-pyrrol-2-yl)propanoic acid] has a response vs control in vivo at 10 mg/kg ([1]; Mus musculus, 0.5 h, 30 min. prior to MCh, read-out: area under the curve (AUC) for Penh response as percent of vehicle control) of 35.2 ± 9.3%, a response vs control in vivo at 0.1 mg/kg [1, 5] of 64.2 ± 7.6% and a response vs control in vivo at 1 mg/kg [1, 5] of 60.2 ± 7.9%. The response vs control in vivo at 10 mg/kg [1, 5] was 40.7 ± 2.4%, the response vs control in vivo at 30 mg/kg [1, 5] was 26.7 ± 1.4% and the “efficacy against experimental asthma (attenuation of MCh induced bronchoconstriction and pulmonary inflammation)” value [1] was “efficacious”. For the same compound, the “reduction” value ([4]; single IV dose 0.1 mg/kg, 24 h prior to MCh) was 79%, the “reduction” value [4, 6] was 100% and the “reduction” value ([4]; single IV dose 10 mg/kg, 30 min. prior to MCh) was 94%. For the same compound, the “reduction” value ([4]; single IV dose 10 mg/kg, 24 h prior to MCh) was 100% and the “reduction” value [4, 7] was 100%.

With `Cc1cc(NS(C)(=O)=O)ccc1-n1c(CCC(=O)O)ccc1-c1ccc(-n2ccnc2C)s1` [Compound 171, 3-(5-(5-(2-methyl-1H-imidazol-1-yl)thiophen-2-yl)-1-(2-methyl-4-(methyl-sulfonamido)-phenyl)-1H-pyrrol-2-yl)propanoic acid] the response vs control in vivo at 1 mg/kg [1, 5] was 78.7 ± 8.1%, the “efficacy against experimental asthma (attenuation of MCh induced bronchoconstriction)” value [1] was “efficacious” and the “reduction” value [4, 6] was 63%.
